Patent publication US12492173B2, “Herbicidal substituted N-tetrazolyl aryl carboxamides” (Bayer Aktiengesellschaft, priority 2019, dated 2025)

How the values were obtained:
Format in all cases: in vivo
Veronica persica [1] = test: Post-emergence herbicidal action, VERPE; set-up: key: % herbicidal action vs untreated; 100 = plants died, 0 = like control; details: for Herbicidal action against VERPE: post-emergence, dosage 80 g/ha; for herbicidal action VERPE: Dosage 80 g/ha
Procedure: (§1) [table] 2. Post-Emergence Herbicidal Action Against Harmful Plants Seeds of monocotyledonous and dicotyledonous weed and crop plants are laid out in sandy loam soil in wood-fiber pots, covered with soil and cultivated in a greenhouse under good growth conditions. 2 to 3 weeks after sowing, the test plants are treated at the one-leaf stage. The compounds of the invention, formulated in the form of wettable powders (WP) or as emulsion concentrates (EC), are then sprayed onto the green parts of the plants in the form of an aqueous suspension or emulsion at a water application rate equating to 600 to 800 l/ha, with addition of 0.2% wetting agent. After the test plants have been left to stand in the greenhouse under optimal growth conditions for about 3 weeks, the action of the preparations is assessed visually in comparison to untreated controls (herbicidal action in percent (%): 100% activity=the plants have died, 0% activity=like control plants). […] The tables below illustrate, in an exemplary manner, the post-emergence herbicidal action of the compounds according to the invention, the herbicidal activity being stated in percent. In the experiments that follow, herbicidal action of numerous inventive compounds and the known compounds that are structurally closest from D1 (WO 2012/028579 A1) and D2 (WO 2018/202535 A1) were compared under the above-specified conditions by the pre-emergence and post-emergence method. The example numbers given in the tables relate to the compounds disclosed in the respective documents. In addition to the compounds disclosed in D1 and D2, the following compounds V-1 to V-14 that are encompassed by D1 or D2 but are not compounds specified therein were used in the comparative experiments: • V-1: 2-(methylsulfanyl)-3-(methylsulfinyl)-N-(1-methyl-1H-tetrazol-5-yl)-4-(trifluoromethyl)benzamide • V-2: 2-(methylsulfanyl)-3-(methylsulfonyl)-N-(1-methyl-1H-tetrazol-5-yl)-4-(trifluoromethyl)benzamide • V-3: 2,3-bis(ethylsulfanyl)-N-(1-methyl-1H-tetrazol-5-yl)-4-(trifluoromethyl)benzamide • V-4: 2-chloro-3-(ethylsulfanyl)-N-(1-methyl-1H-tetrazol-5-yl)-4-(trifluoromethyl)benzamide • V-5: 2-chloro-4-iodo-3-(methylsulfanyl)-N-(1-methyl-1H-tetrazol-5-yl)benzamide • V-6: 2-chloro-4-iodo-3-(methylsulfinyl)-N-(1-methyl-1H-tetrazol-5-yl)benzamide • V-7: 2-chloro-4-iodo-3-(methylsulfonyl)-N-(1-methyl-1H-tetrazol-5-yl)benzamide • V-8: 2-bromo-3-(methylsulfanyl)-N-(1-methyl-1H-tetrazol-5-yl)-4-(trifluoromethyl)benzamide • V-9: 2-bromo-3-(methylsulfinyl)-N-(1-methyl-1H-tetrazol-5-yl)-4-(trifluoromethyl)benzamide • V-10: 2-bromo-3-(methylsulfonyl)-N-(1-methyl-1H-tetrazol-5-yl)-4-(trifluoromethyl)benzamide • V-11: 2-bromo-3-(ethylsulfanyl)-N-(1-methyl-1H-tetrazol-5-yl)-4-(trifluoromethyl)benzamide • V-12: 2-bromo-3-(ethylsulfinyl)-N-(1-methyl-1H-tetrazol-5-yl)-4-(trifluoromethyl)benzamide • V-13: 2-bromo-3-(ethylsulfonyl)-N-(1-methyl-1-1H-tetrazol-5-yl)-4-(trifluoromethyl)benzamide • V-14: 2-cyclopropyl-3-(ethylsulfanyl)-N-(1-methyl-1H-tetrazol-5-yl)-4-(trifluoromethyl)benzamide Herbicidal Pre-Emergence Action: […]

Matricaria inodora [2] = test: Post-emergence herbicidal action, MATIN; set-up: key: % herbicidal action vs untreated; 100 = plants died, 0 = like control; details: for Herbicidal action against MATIN: post-emergence, dosage 80 g/ha; for herbicidal action MATIN: Dosage 80 g/ha
Procedure: as §1

Amaranthus retroflexus [3] = test: Pre-emergence herbicidal action, AMARE; set-up: key to Herbicidal action against AMARE: % activity: 100 = plants have died, 0 = like control plants; details: for herbicidal action AMARE: dosage 320 g/ha
Excerpt: (§2) 1. Pre-Emergence Herbicidal Action Against Harmful Plants Seeds of monocotyledonous and dicotyledonous weed plants and crop plants are laid out in sandy loam soil in wood-fiber pots and covered with soil. The compounds of the invention, formulated in the form of wettable powders (WP) or as emulsion concentrates (EC), are then applied to the surface of the covering soil in the form of an aqueous suspension or emulsion at a water application rate equating to 600 to 800 l/ha, with addition of 0.2% wetting agent. After the treatment, the pots are placed in a greenhouse and kept under good growth conditions for the trial plants. The damage to the test plants is scored visually after a test period of 3 weeks by comparison with untreated controls (herbicidal activity in percent (%): 100% activity=the plants have died, 0% activity=like control plants). […] The tables below illustrate, in an exemplary manner, the […] herbicidal action of the compounds according to the invention, the herbicidal activity being stated in percent. [table] In the experiments that follow, herbicidal action of numerous inventive compounds and the known compounds that are structurally closest from D1 (WO 2012/028579 A1) and D2 (WO 2018/202535 A1) were compared under the above-specified conditions by the pre-emergence and post-emergence method. The example numbers given in the tables relate to the compounds disclosed in the respective documents. In addition to the compounds disclosed in D1 and D2, the following compounds V-1 to V-14 that are encompassed by D1 or D2 but are not compounds specified therein were used in the comparative experiments: • V-1: 2-(methylsulfanyl)-3-(methylsulfinyl)-N-(1-methyl-1H-tetrazol-5-yl)-4-(trifluoromethyl)benzamide • V-2: 2-(methylsulfanyl)-3-(methylsulfonyl)-N-(1-methyl-1H-tetrazol-5-yl)-4-(trifluoromethyl)benzamide • V-3: 2,3-bis(ethylsulfanyl)-N-(1-methyl-1H-tetrazol-5-yl)-4-(trifluoromethyl)benzamide • V-4: 2-chloro-3-(ethylsulfanyl)-N-(1-methyl-1H-tetrazol-5-yl)-4-(trifluoromethyl)benzamide • V-5: 2-chloro-4-iodo-3-(methylsulfanyl)-N-(1-methyl-1H-tetrazol-5-yl)benzamide • V-6: 2-chloro-4-iodo-3-(methylsulfinyl)-N-(1-methyl-1H-tetrazol-5-yl)benzamide • V-7: 2-chloro-4-iodo-3-(methylsulfonyl)-N-(1-methyl-1H-tetrazol-5-yl)benzamide • V-8: 2-bromo-3-(methylsulfanyl)-N-(1-methyl-1H-tetrazol-5-yl)-4-(trifluoromethyl)benzamide • V-9: 2-bromo-3-(methylsulfinyl)-N-(1-methyl-1H-tetrazol-5-yl)-4-(trifluoromethyl)benzamide • V-10: 2-bromo-3-(methylsulfonyl)-N-(1-methyl-1H-tetrazol-5-yl)-4-(trifluoromethyl)benzamide • V-11: 2-bromo-3-(ethylsulfanyl)-N-(1-methyl-1H-tetrazol-5-yl)-4-(trifluoromethyl)benzamide • V-12: 2-bromo-3-(ethylsulfinyl)-N-(1-methyl-1H-tetrazol-5-yl)-4-(trifluoromethyl)benzamide • V-13: 2-bromo-3-(ethylsulfonyl)-N-(1-methyl-1-1H-tetrazol-5-yl)-4-(trifluoromethyl)benzamide • V-14: 2-cyclopropyl-3-(ethylsulfanyl)-N-(1-methyl-1H-tetrazol-5-yl)-4-(trifluoromethyl)benzamide Herbicidal Pre-Emergence Action: […]

Matricaria inodora [4] = test: Pre-emergence herbicidal action, MATIN; details: dosage 320 g/ha
Excerpt: as §2

Echinochloa crus-galli [5] = test: Post-emergence herbicidal action, ECHCG; set-up: key: % herbicidal action vs untreated; 100 = plants died, 0 = like control; details: for Herbicidal action against ECHCG: post-emergence, dosage 80 g/ha; for herbicidal action ECHCG: Dosage 80 g/ha
Procedure: as §1

Pharbitis purpurea = test: Post-emergence herbicidal action, PHBPU; details: for Herbicidal action against PHBPU: post-emergence, dosage 80 g/ha; for herbicidal action PHBPU: Dosage 80 g/ha
Procedure: as §1

Stellaria media [6] = test: Post-emergence herbicidal action, STEME; set-up: key: % herbicidal action vs untreated; 100 = plants died, 0 = like control; details: for Herbicidal action against STEME: post-emergence, dosage 80 g/ha; for herbicidal action STEME: Dosage 80 g/ha
Procedure: as §1

Abutilon theophrasti [7] = test: Pre-emergence herbicidal action, ABUTH; details: dosage 320 g/ha
Excerpt: as §2

Echinochloa crus-galli [8] = test: Pre-emergence herbicidal action, ECHCG; details: dosage 320 g/ha
Excerpt: as §2

Setaria viridis = test: Post-emergence herbicidal action, SETVI; set-up: key: % herbicidal action vs untreated; 100 = plants died, 0 = like control; details: for Herbicidal action against SETVI: post-emergence, dosage 80 g/ha; for herbicidal action SETVI: Dosage 80 g/ha
Procedure: as §1

Amaranthus retroflexus [9] = test: Post-emergence herbicidal action, AMARE; set-up: key: % herbicidal action vs untreated; 100 = plants died, 0 = like control; details: for Herbicidal action against AMARE: post-emergence, dosage 80 g/ha; for herbicidal action AMARE: Dosage 80 g/ha
Procedure: as §1

Veronica persica [10] = test: Pre-emergence herbicidal action, VERPE; details: dosage 320 g/ha
Excerpt: as §2

Viola tricolor [11] = test: Post-emergence herbicidal action, VIOTR; set-up: key: % herbicidal action vs untreated; 100 = plants died, 0 = like control; details: for Herbicidal action against VIOTR: post-emergence; for herbicidal action VIOTR: Dosage 80 g/ha
Procedure: as §1

Viola tricolor [12] = test: Pre-emergence herbicidal action, VIOTR; set-up: key to Herbicidal action against VIOTR: % activity: 100 = plants have died, 0 = like control plants; details: for herbicidal action VIOTR: dosage 320 g/ha
Excerpt: as §2

Abutilon theophrasti [13] = test: Post-emergence herbicidal action, ABUTH; set-up: key: % herbicidal action vs untreated; 100 = plants died, 0 = like control; details: for herbicidal action ABUTH: Dosage 80 g/ha; for Herbicidal action against ABUTH: post-emergence, dosage 80 g/ha
Procedure: as §1

Stellaria media [14] = test: Pre-emergence herbicidal action, STEME; details: dosage 320 g/ha
Excerpt: as §2

[15] = comparative experiment, 20 g of a.i./ha

Row | Structure (SMILES) | Herbicidal action against VERPE (Veronica persica [1]) | herbicidal action AMARE (Amaranthus retroflexus [3]) [%] | herbicidal action MATIN (Matricaria inodora [4]) [%] | Herbicidal action against ECHCG (Echinochloa crus-galli [5]) | Herbicidal action against PHBPU (Pharbitis purpurea) | Herbicidal action against STEME (Stellaria media [6]) | herbicidal action ABUTH (Abutilon theophrasti [7]) [%] | herbicidal action ECHCG (Echinochloa crus-galli [8]) [%] | Herbicidal action against AMARE (Amaranthus retroflexus [9]) | herbicidal action VERPE (Veronica persica [10]) [%] | Herbicidal action against VIOTR (Viola tricolor [11]; dosage 80 g/ha) | herbicidal action VIOTR (Viola tricolor [12]) [%] | Herbicidal action against ABUTH (Abutilon theophrasti [13]) | other results
1 | CCCn1nnnc1NC(=O)c1ccc(C(F)F)c(CS(C)(=O)=O)c1C [Example 3-109] | 100 | 100 | 100 | 90 | 90 | 100 | 100 | 100 | 100 | 90 | 100 | 100 | – | Herbicidal action against MATIN (Matricaria inodora [2]): 100; Herbicidal action against SETVI (Setaria viridis): 90
2 | COc1c(C(=O)Nc2nnnn2C)ccc(Cl)c1C[S+](C)[O-] (stereo not shown) [Example 1-571] | – | 90 | – | – | – | – | 100 | – | – | 80 | – | – | – | herbicidal action VERPE (Veronica persica [1]): 90; herbicidal action MATIN (Matricaria inodora [2]): 80; herbicidal action ECHCG (Echinochloa crus-galli [5]): 90; herbicidal action PHBPU (Pharbitis purpurea): 90; herbicidal action STEME (Stellaria media [6]): 100; herbicidal action SETVI (Setaria viridis): 80; herbicidal action ABUTH (Abutilon theophrasti [13]): 80; herbicidal action AMARE (Amaranthus retroflexus [9]): 80; herbicidal action VIOTR (Viola tricolor [11]): 80
3 | Cn1nnnc1NC(=O)c1ccc(C(F)(F)F)c(CS(C)(=O)=O)c1S(C)(=O)=O [Example 1-199] | 80 | 90 | 90 | 80 | 80 | 90 | – | 90 | 80 | 100 | 90 | – | 90 | –
4 | Cc1c(C(=O)Nc2nnnn2C)ccc(S(C)(=O)=O)c1C[S+](C)[O-] (stereo not shown) [Example 1-38] | 90 | 80 | 90 | 90 | – | 100 | – | – | 100 | 100 | 80 | – | – | herbicidal action STEME (Stellaria media [14]): 90%
5 | Cc1c(C(=O)Nc2nnnn2C)ccc(Cl)c1C[S+](C)[O-] (stereo not shown) [Example 1-47] | – | – | – | – | – | – | – | – | – | – | – | – | – | Herbicidal action against AMARE (Amaranthus retroflexus [3]; [15]): 80; Herbicidal action against VIOTR (Viola tricolor [12]; [15]): 30
6 | CCCn1nnnc1NC(=O)c1ccc(I)c(CSC)c1Cl [Example 3-362] | – | – | – | 80 | – | – | – | – | 80 | – | – | 80 | 80 | Herbicidal action against MATIN (Matricaria inodora [2]): 90
7 | CSCc1c(S(C)(=O)=O)ccc(C(=O)Nc2nnnn2C)c1C [Example 1-37] | – | 100 | 80 | – | – | – | 80 | – | – | 90 | – | 100 | – | herbicidal action VERPE (Veronica persica [1]): 100; herbicidal action MATIN (Matricaria inodora [2]): 80; herbicidal action ECHCG (Echinochloa crus-galli [5]): 100; herbicidal action PHBPU (Pharbitis purpurea): 90; herbicidal action STEME (Stellaria media [6]): 100; herbicidal action SETVI (Setaria viridis): 100; herbicidal action ABUTH (Abutilon theophrasti [13]): 90; herbicidal action AMARE (Amaranthus retroflexus [9]): 100; herbicidal action VIOTR (Viola tricolor [11]): 100
8 | COc1c(C(=O)Nc2nnnn2C)ccc(Cl)c1CS(C)(=O)=O [Example 1-572] | 90 | 100 | – | 90 | 80 | – | 80 | 80 | 90 | 80 | 80 | – | 80 | Herbicidal action against SETVI (Setaria viridis): 80; Herbicidal action against VIOTR (Viola tricolor [11]; comparative experiment, 5 g of a.i./ha): 50
